According to US7435548B2, “Methods for producing ex vivo models for inflammatory disease and uses thereof” (deCODE genetics ehf., priority 2001, dated 2008):

What was measured:
[1] = system: airway smooth muscle (ASM) tissues; experiment: ASM constrictor responses to acetylcholine (organ bath, isometric tension); type: tissue-based, New Zealand White rabbits
Description: (§1) After anesthesia with xylazine (10 mg/kg) and ketamine (50 mg/kg), the animals were sacrificed with systemic air embolism.
(§2) After incubation, each airway segment was suspended longitudinally between stainless steel triangular supports in siliconized 20-mL organ baths (Harvard Apparatus, Inc., South Natick, Mass.). […] Care was taken to place the membranous portion of the trachea between the supports to maximize the recorded tension generated by the contracting trachealis muscle. […] Passive resting tension of each tracheal smooth muscle segment was set at 2.0 g after each tissue had been passively stretched to a tension of 8 g to optimize the resting length of each segment. The tissues were allowed to equilibrate in the bath for 45 minutes, at which time each tissue was primed with a 1 minute exposure to 10^−4M acetylcholine (ACh). Cholinergic contractility was initially assessed in the ASM by cumulative administration of ACh in final bath concentrations from 10^−9 to 10^−3M. […] The relaxant responses to isoproterenol were analyzed in terms of percent maximal relaxation (Rmax) from the active cholinergic contraction, and sensitivity to the relaxing agent was determined as the corresponding pD50 value associated with 50% Rmax.

[2] = system: human ASM cells; experiment: Microarray mRNA expression (Affymetrix HU95GeneFL) in cultured ASM cells; type: cell-based
Excerpt: Simultaneous multiple gene mRNA expression was examined in human ASM cells with the Affymetrix expression microarray system using human gene chips (HU95GeneFL array; Affymetrix, Santa Clara, Calif.) representing approximately 6000 genes. The ASM cells were derived from a donor (Clonetics Corp., San Diego, Calif.) who had no evidence of pulmonary disease, and the cells were carefully characterized by the manufacturer with specific markers to confirm their selective smooth muscle phenotype and to exclude contamination with other cell types.
Following incubation of the cells, the total RNA used for the Affymetrix microarray expression analysis was extracted and purified using commercially available reagents and in accordance with methods recommended by the manufacturer (Affymetrix, Santa Clara, Calif.). Briefly, total RNA was extracted using Trizol and purified with Qiagen RNAEASY spin columns (Qiagen GmbH, Germany). Approximately 5 μg of RNA was used for first and second strand cDNA synthesis. After precipitation, the cDNAs were transcribed to cRNAs. The biotinylated cRNA was subsequently hybridized to the Affymetrix gene chips overnight. Non-bound probes were removed by stringency washing. The hybridized chips were developed using a Streptavidin-Phycoerythrin complex and scanned. The scanned images were then analyzed with Affymetrix software and the data was examined using commercially available software programs, including Spotfire Net 5.1 (Spotfire Inc, Mass.).

[3] = system: airway smooth muscle (ASM) tissues; experiment: ASM relaxant responses to isoproterenol after half-maximal ACh contraction (organ bath); type: tissue-based, New Zealand White rabbits; settings: control ASM
Description: as §1, §2

[4] = control ASM (medium alone), mean±SE

## CC(=O)OCC[N+](C)(C)C [ACh, acetylcholine]
[1]; [4]
  maximal isometric force of contraction (Tmax) to ACh: 93.7±8.9 g/g ASM weight
  pD50 (−log ED50) for ACh: 4.66±0.12 −logM

## C[C@@H]1C[C@H]2[C@@H]3CCC4=CC(=O)C=C[C@]4(C)[C@@]3(F)[C@@H](O)C[C@]2(C)[C@@]1(O)C(=O)CO [DEX, dexamethasone]
[2]; ATP-binding cassette, ABCB2/X57522, IL-1β/TNFα, presence or absence of DEX 10^−5M
  MER, ABCB2: 1.75
[2]; Adenosine monophosphate deaminase, AMPD3/D12775, IL-1β/TNFα, presence versus absence of DEX 10^−5M
  MER, AMPD3: 0.82
[2]; BCL2-related protein A1, BCL2A1/U29680, IL-1β/TNFα, presence versus absence of DEX 10^−5M
  MER, BCL2A1: 0.41
[2]; Bradykinin receptor-2, BKR2/X86163, IL-1β/TNFα, presence versus absence of DEX 10^−5M
  MER, BKR2: 0.62
[2]; CD83, CD83/Z11697, IL-1β/TNFα, presence versus absence of DEX 10^−5M
  MER, CD83: 0.56
[2]; CDC28 protein kinase-2, CKS2/X54942, IL-1β/TNFα, presence versus absence of DEX 10^−5M
  MER, CKS2: 0.80
[2]; Enhancer binding protein, CEBPD/M83667, IL-1β/TNFα, presence or absence of DEX 10^−5M
  MER, CEBPD: 1.48
[2]; Fibroblast growth factor-2, FGF2/J04513, IL-1β/TNFα, presence versus absence of DEX 10^−5M
  MER, FGF2: 0.69
[2]; Guanylate binding protein-1, GBP1/M55542, IL-1β/TNFα, presence or absence of DEX 10^−5M
  MER, GBP1: 1.22
[2]; Hydroxysteroid (11-β) dehydrogenase-1, HSD11B1/M7665, IL-1β/TNFα, presence or absence of DEX 10^−5M
  MER, HSD11B1: 2.57
[2]; Inhibin, INHBA/X57579, IL-1β/TNFα, presence versus absence of DEX 10^−5M
  MER, INHBA: 0.00
[2]; Intercellular adhesion molecule-1, ICAM-1/M24283, mRNA elicited by IL-1β/TNFα in presence versus absence of DEX 10^−5M
  MER, ICAM-1: 0.66
[2]; Interleukin-6, IL-6/X04602, IL-1β/TNFα, presence versus absence of DEX 10^−5M
  MER, IL-6: 0.89
[2]; Interleukin-8, IL-8/M28130, IL-1β/TNFα, presence versus absence of DEX 10^−5M
  MER, IL-8: 0.57
[2]; Interleukin-13 receptor-α, IL-1 RA2/U70981, IL-1β/TNFα, presence versus absence of DEX 10^−5M
  MER, Interleukin-13 receptor-α: 0.00
[2]; KIAA0247 gene product, KIAA0247/D87434, IL-1β/TNFα, presence or absence of DEX 10^−5M
  MER, KIAA0247: 1.3
[2]; Matrix metalloproteinase-3, MMP3/X05232, IL-1β/TNFα, presence versus absence of DEX 10^−5M
  MER, MMP3: 0.70
[2]; Matrix metalloproteinase-10, MMP10/X07820, IL-1β/TNFα, presence versus absence of DEX 10^−5M
  MER, MMP10: 0.00
[2]; Matrix metalloproteinase-12, MMP12/L23808, IL-1β/TNFα, presence versus absence of DEX 10^−5M
  MER, MMP12: 0.20
[2]; Mitogen-activated protein kinase kinase kinase-5, MAP3K5/U67156, IL-1β/TNFα, presence or absence of DEX 10^−5M
  MER, MAP3K5: 1.65
[2]; Monocyte-derived chemotactic protein, MDCP/HG4069, IL-1β/TNFα, presence versus absence of DEX 10^−5M
  MER, MDCP: 0.29
[2]; Nef-associated factor 1, NAF1/D30755, IL-1β/TNFα, presence versus absence of DEX 10^−5M
  MER, NAF1: 0.88
[2]; Ninjurin-1, NINJ1/U72661, IL-1β/TNFα, presence versus absence of DEX 10^−5M
  MER, NINJ1: 0.59
[2]; Nuclear factor of activated T cells-C1, NFATC1/U08015, IL-1β/TNFα, presence versus absence of DEX 10^−5M
  MER, NFATC1: 0.61
[2]; Nuclear factor of kappa light polypeptide, NFKB1/M58603, IL-1β/TNFα, presence versus absence of DEX 10^−5M
  MER, NFKB1: 0.87
[2]; Nuclear receptor subfamily 4, NR4A3/U12767, IL-1β/TNFα, presence versus absence of DEX 10^−5M
  MER, NR4A3: 0.54
[2]; PTX3 promoter, PTX3/X97748, IL-1β/TNFα, presence versus absence of DEX 10^−5M
  MER, PTX3: 0.69
[2]; Phosphodiesterase-4B, PDE4B/L20971, IL-1β/TNFα, presence versus absence of DEX 10^−5M
  MER, PDE4B: 0.40
[2]; Plasma membrane Ca^2+ ATPase, ATP2B1/J04027, IL-1β/TNFα, presence versus absence of DEX 10^−5M
  MER, ATP2B1: 0.34
[2]; Pre-B cell colony-enhancing factor, PBEF/U02020, IL-1β/TNFα, presence versus absence of DEX 10^−5M
  MER, PBEF: 0.73
[2]; Putative lymphocyte G0/G1 switch gene, G0S2/M72885, IL-1β/TNFα, presence versus absence of DEX 10^−5M
  MER, G0S2: 0.65
[2]; RANTES, RANTES/M21121, IL-1β/TNFα, presence versus absence of DEX 10^−5M
  MER, RANTES: 0.67
[2]; Signal transducer/activator of transcription 5, STAT5A/U43185, IL-1β/TNFα, presence versus absence of DEX 10^−5M
  MER, STAT5A: 0.87
[2]; Small inducible cytokine subfamily A7, SCYA7/X72308, IL-1β/TNFα, presence versus absence of DEX 10^−5M
  MER, SCYA7: 0.50
[2]; Small inducible cytokine subfamily B2, SCYB2/M57731, IL-1β/TNFα, presence versus absence of DEX 10^−5M
  MER, SCYB2: 0.52
[2]; Small inducible cytokine subfamily B3, SCYB3/X53800, IL-1β/TNFα, presence versus absence of DEX 10^−5M
  MER, SCYB3: 0.83
[2]; Small inducible cytokine subfamily B6, SCYB6/U83303, IL-1β/TNFα, presence versus absence of DEX 10^−5M
  MER, SCYB6: 0.61
[2]; Small inducible cytokine subfamily B10, SCYB10/X02530, IL-1β/TNFα, presence or absence of DEX 10^−5M
  MER, SCYB10: 1.12
[2]; Small inducible subfamily B5, SCYB5/L37036, IL-1β/TNFα, presence or absence of DEX 10^−5M
  MER, SCYB5: 1.75
[2]; Superoxide dismutase-2, SOD2/X07834, IL-1β/TNFα, presence versus absence of DEX 10^−5M
  MER, SOD2: 0.89
[2]; Tenascin C, HXB/X78565, IL-1β/TNFα, presence or absence of DEX 10^−5M
  MER, Tenascin C: 1.21
[2]; Tumor necrosis factor-α-induced protein 3, TNF-αIP3/M59465, IL-1β/TNFα, presence or absence of DEX 10^−5M
  MER, TNF-αIP3: 1.21
[2]; Tumor necrosis factor-α-induced protein 6, TNF-αIP6/M31165, IL-1β/TNFα, presence or absence of DEX 10^−5M
  MER, TNF-αIP6: 1.11
[2]; Urokinase plasminogen activator, uPA/X02419, IL-1β/TNFα, presence versus absence of DEX 10^−5M
  MER, uPA: 0.00
[2]; in the presence of DEX 10^−5M
  inhibition of IL-1β/TNFα induced mRNA expression, p50-NF-kB gene: 51%
  inhibition of IL-1β/TNFα induced mRNA expression, phosphodiesterase D4 gene: 60%
  inhibition of IL-1β/TNFα induced mRNA expression, plasma membrane Ca^2+ ATPase gene: 66%
[2]; pro-Interleukin-1β, IL-1β/X04500, IL-1β/TNFα, presence versus absence of DEX 10^−5M
  MER, pro-Interleukin-1β: 0.45
[1]; DEX 10^−5M alone
  effect on constrictor responses to ACh in control tissues: no effect
[1]; IL-1β/TNFα exposed ASM pre-treated 1 hour with DEX 10^−5M, mean±SE
  Tmax to ACh: 102.9±13.1 g/g ASM weight

## CC(C)NCC(O)c1ccc(O)c(O)c1 (stereo not drawn) [isoproterenol]
[3]; Oryctolagus cuniculus, read-out: pD50 for isoproterenol (converted)
  EC50: 813 nM
[3]
  maximal relaxation (Rmax) to isoproterenol: 57.7±7.1%
